Test results published in patent US9675596B2, “1,2,4-thiazolidin-3-one derivatives and their use in the treatment of cancer” (Baltic Bio AB, priority 2009, dated 2017).

Legend:
[1] = test system: AMPK; test: Activation of AMPK: Western blot of AMPK (Thr172) phosphorylation in PC3 cells; assay type: cell-based, human; details: PC3 cells starved 24 h serum-free; 0.3, 0.6, 1.2 and 2.5 μM for 4 h
Experimental: After starvation of PC3 cells in serum-free medium for 24 h, 0.3, 0.6, 1.2 and 2.5 μM of the compound of Example 1 or the compound of Example 2c was added and incubated for an additional 4 h. The Figure provides representative immunoblots of AMPK phosphorylation by the compound of Example 1 or the compound of Example 2c.
After starvation of PC3 cells in serum-free medium for 16 h, 1 and 5 μM of the selected compounds were added and incubated for an additional 4 h. The Figure provides representative immunoblots of the total level of AMPK (Pan-AMPK) and the level of AMPK and acetyl-CoA carboxylase phosphorylation by the selected compounds of the examples. The selected compounds of the examples stimulate AMPK phosphorylation in PC3 cells and induce the phosphorylation of acetyl-CoA carboxylase.
Selected compounds of Examples 1, 4 to 6 and 8 were prepared. A stock solution of […] was prepared by dissolving the compound in 100% DMSO.
Human PC3 cells were purchased from LGC Promochem-ATCC (ATCC catalog no CRL-1435). […]
PC3 cells were lysed in buffer (100 mM TRIS pH 6.8, 2% w/v Sodium dodecylsulfate (SDS), 10 mM NaF, 10 mM 3-glycerophosphate, 1 mM Na Vanadate). […] Protein concentrations of the lysates were measured using a BCA protein assay kit (Pierce #23225). […]

[2] = molecular target: T1, PP2C-α1 (Homo sapiens, UniProt P35813); test: Dephosphorylation of PP2C assay (PP2C-α1 mediated dephosphorylation of AMPK trimer); assay type: biochemical; details: 2.5, 5 and 10 μM; AMPK trimer α1/β1/γ1, 20 min, 30° C.
T1 construct: purchased Abcam (PP2C-α1); Invitrogen (AMPK trimer) Ab51205; PV4672
T1 sequence (P35813 1-382): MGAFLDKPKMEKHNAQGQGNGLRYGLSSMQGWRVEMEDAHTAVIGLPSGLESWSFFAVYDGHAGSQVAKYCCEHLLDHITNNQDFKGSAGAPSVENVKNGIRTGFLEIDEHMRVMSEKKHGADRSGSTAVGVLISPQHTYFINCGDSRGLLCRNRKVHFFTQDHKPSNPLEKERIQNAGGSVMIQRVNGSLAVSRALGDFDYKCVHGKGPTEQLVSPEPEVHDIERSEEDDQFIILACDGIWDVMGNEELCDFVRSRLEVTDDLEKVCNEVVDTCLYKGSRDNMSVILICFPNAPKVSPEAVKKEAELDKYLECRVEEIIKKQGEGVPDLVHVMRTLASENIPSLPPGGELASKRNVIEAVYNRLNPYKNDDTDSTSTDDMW
Experimental: The compounds were tested in the assay at concentrations of 2.5, 5 and 10 μM (as depicted in the figure).
Hyperphosphosporylated AMPK trimer 10 (ng) (α1/β1/γ1) from Invitrogen (PV4672) was incubated in a buffer containing: 40 mM Hepes pH 7.45, 2 mM MnCl2, 0.5 mM DTT and 0.125 ng recombinant PP2C-α1 (Abcam Ab51205) in the presence or absence of potential inhibitors of the interaction/enzymatic reaction in at total volume of 10 μL for 20 minutes in 30° C. The reaction was terminated by addition of 40 μL stop solution containing 1% Bovine Serum Albumin (BSA), 10 mM EDTA and anti Phospho-AMPKα (Thr172) Antibody (cell signaling #2531) at a dilution of 1/1000. The samples were transferred to glutathione coated 96 well plated (Pierce #15140) and incubated O/N at +4° C. The plate was washed 3×200 μL in PBS/0.05% Triton X-100. The plate was incubated with PBS/1% BSA and horse radish peroxidase conjugated goat-anti rabbit antibody (Jackson immunoresearch Laboratories Inc. #111-035-003) at a dilution of 1/10 000 for 2 h in room temperature. The plate was washed 3×200 μL in PBS/0.05% Triton X-100. The assay was developed by addition of 100 μL Liquid Substrate System for ELISA (Sigma, T0440) for 5-30 min. The developing reaction was terminated by addition of 25 μL […]. Absorbance was measured at 450 nm, where absorbance correlates to amount p-T172 AMPK.

[3] = test system: PC-3 cells; test: Cell proliferation assay (BrdU incorporation); assay type: cell-based; details: Homo sapiens, serum-free, 0.6 μM, relative to vehicle control (1 unit), 18 h + 6 h BrdU, read-out: Units of BrdU incorporation
Experimental: PC-3 cancer cell lines were propagated in D-MEM (Gibco 21885) supplemented with 10% Foetal calf serum. 15000 cells per well were seeded in 96 well plates and incubated overnight. The culture media was changed to serum-free D-MEM for 24 h. The culture media was then changed to serum free D-MEM containing either 0.2% DMSO as vehicle control or 0.3, 0.6, 1.2 or 2.5 μM (or 1.25, 2.5, 5, 10 μM (as indicated in Table 1 below)) of the selected compounds of Example 1 to Example 8 in 0.2% DMSO in quadruplicate. After 18 h incubation, BrdU was added according to manufacturer's recommendations. After 6 h incubation in the presence of BrdU, the culture media was removed and BrdU incorporation was measured using “Cell Proliferation ELISA, BrdU colorimetric” Roche (11647229001) according to manufacturer's recommendations.
Proliferation rate of PC-3 cells are reduced by relevant concentrations of the test compounds as measured by BrdU incorporation.

## O=c1[nH]s/c(=N\c2ccc(Cl)c(Cl)c2)n1Cc1cccc(C(F)(F)F)c1 [Example 1, 5-(3,4-dichlorophenyl)imino-4-[[3-(trifluoromethyl)phenyl]methyl]-1,2,4-thiadiazolidin-3-one]
[1]
  AMPK phosphorylation (immunoblot, FIG. 1): stimulates AMPK phosphorylation
[2]
  PP2C-α1 mediated dephosphorylation of AMPK (FIG. 3): reduce PP2C-α1 mediated dephosphorylation of AMPK
[3]
  activity at 0.6 µM: 39%

## O=c1[nH]s/c(=N\c2ccc(Cl)c(Cl)c2)n1Cc1ccc(F)c(F)c1 [Example 2c, 5-(3,4-dichlorophenyl)imino-4-[(3,4-difluorophenyl)methyl]-1,2,4-thiadiazolidin-3-one]
[1]
  AMPK phosphorylation (immunoblot, FIG. 1): stimulates AMPK phosphorylation
[2]
  PP2C-α1 mediated dephosphorylation of AMPK (FIG. 3): reduce PP2C-α1 mediated dephosphorylation of AMPK
[3]
  activity at 0.6 µM: 34%
